Literature values in patent publication US20250114486A1, “MARKED FATTY ACID DERIVATIVE, PRECURSOR COMPOUND THEREOF, AND USE THEREOF IN CONTRAST AGENT” (BEIJING NORMAL UNIVERSITY, priority 2022, published 2025).
Like-named read-outs stand apart in the source and are kept apart here.

Details: female SD rats, cited from earlier work
[1] = 30 min after injection, reference 3
[2] = 30 min post-injection, reference 2
[3] = 60 min after injection, reference 2
[4] = 60 min after injection, reference 3
[5] = 60 min post-injection, reference 1
[6] = 60 min post-injection, reference 2
[7] = 120 min after injection, reference 3
[8] = 120 min post-injection, reference 1

For `[99Tc].[C-]#[N+]CC(C)(C)OC.[C-]#[N+]CC(C)(C)OC.[C-]#[N+]CC(C)(C)OC.[C-]#[N+]CC(C)(C)OC.[C-]#[N+]CC(C)(C)OC.[C-]#[N+]CC(C)(C)OC` [^99mTc-MIBI], the “absolute myocardial uptake value” (10 min after injection, reference 2) is given as 3.26±0.18 % ID/g, the “absolute myocardial uptake value” (10 min post-injection, reference 1) is given as 3.70 % Dose/g and the “absolute myocardial uptake value” (20 min after injection, reference 2) is given as 3.07 0.21 % ID/g. The “absolute myocardial uptake value” (30 min after injection, reference 2) was 3.13±0.12 % ID/g, the Heart-to-Blood ratio [1] was 114.6±34.70 and the “absolute myocardial uptake value” [1] was 3.16±0.56 % ID/g. For the same compound, the “absolute myocardial uptake value” (30 min post-injection, reference 1) was 3.16 % Dose/g, the Heart-to-Blood ratio [2] was 104.30 and the Heart-to-Lungs ratio [2] was 4.66±0.24. For the same compound, the Heart-to-Lungs ratio (30 min post-injection, reference 3) was 3.57±0.72, the Heart-to-Liver ratio [3] was 2.65±0.22 and the “absolute myocardial uptake value” [3] was 3.29±0.12 % ID/g. For the same compound, the Heart-to-Blood ratio [4] was 137.80±35.00, the Heart-to-Liver ratio [4] was 4.25±0.84 and the “absolute myocardial uptake value” [4] was 3.14±0.42 % ID/g. For the same compound, the Heart-to-Liver ratio [5] was 2.04±0.17, the Heart-to-Lungs ratio [5] was 6.77±0.55 and the “absolute myocardial uptake value” [5] was 3.04 % Dose/g. For the same compound, the Heart-to-Blood ratio [6] was 164.50, the Heart-to-Lungs ratio [6] was 7.32±0.28 and the Heart-to-Lungs ratio (60 min post-injection, reference 3) was 6.41±1.25. The Heart-to-Blood ratio [7] was 209.00±12.40, the Heart-to-Liver ratio [7] was 4.52±1.57 and the “absolute myocardial uptake value” [7] was 2.83±0.25 % ID/g. For the same compound, the Heart-to-Liver ratio [8] was 2.96±0.34, the Heart-to-Lungs ratio [8] was 6.48±0.51 and the Heart-to-Lungs ratio (120 min post-injection, reference 3) was 7.97±1.89.
